Experiments:
SNORF25 receptor [1] = target: T1, SNORF25 receptor (Rattus norvegicus, UniProt Q7TQN8); assay: cAMP release in CHO cells transiently transfected with SNORF25; format: cell-based; conditions: 10 μM; SNORF25-transfected cells (FIG. 6)
T1 construct: the entire coding region was amplified from Rin14b cell line cDNA and rat genomic DNA; expressed in transfected cells; host or cells: CHO cells, transient (electroporation)
T1 sequence (Q7TQN8 with tags, fused parts or gaps limits assumed): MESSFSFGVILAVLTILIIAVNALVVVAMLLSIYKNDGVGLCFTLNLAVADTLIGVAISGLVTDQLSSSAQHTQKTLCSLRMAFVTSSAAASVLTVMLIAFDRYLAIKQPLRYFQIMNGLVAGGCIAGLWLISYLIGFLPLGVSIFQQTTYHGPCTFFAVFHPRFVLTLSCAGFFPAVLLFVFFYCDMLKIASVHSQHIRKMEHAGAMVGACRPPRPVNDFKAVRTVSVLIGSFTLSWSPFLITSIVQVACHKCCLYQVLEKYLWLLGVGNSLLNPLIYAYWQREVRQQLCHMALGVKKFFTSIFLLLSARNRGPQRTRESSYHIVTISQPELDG
Experimental: (§1) CHO cells are grown on 150 mm plates in HAM's F-12 medium with supplements (10% bovine calf serum, 4 mM L-glutamine and 100 units/ml penicillin/100 μg/ml streptomycin) at 37° C., 5% CO2. Stock plates of CHO cells are trypsinized and split 1:8 every 3–4 days.
(§2) A typical protocol for the electroporation method as applied to Cos-7 cells is described as follows. Cells to be used for transfection are split 24 hours prior to the transfection to provide flasks which are subconfluent at the time of transfection. The cells are harvested by trypsinization resuspended in their growth media and counted. 5×10^6 cells are suspended in 300 μl of DMEM and placed into an electroporation cuvette. 8 μg of receptor DNA plus 8 μg of any additional DNA needed (e.g. G protein expression vector, reporter construct, antibiotic resistance marker, mock vector, etc.) is added to the cell suspension, the cuvette is placed into a BioRad Gene Pulser and subjected to an electrical pulse (Gene Pulser settings: 0.25 kV voltage, 950 μF capacitance). […]
(§3) The receptor-mediated stimulation or inhibition of cyclic AMP (cAMP) formation may be assayed in cells expressing the receptors. […] The plates are stored at 4° C. for 15 min, and the cAMP content in the stopping solution is measured by radioimmunoassay. Radioactivity may be quantified using a gamma counter equipped with data reduction software. […]

SNORF25 [2] = target: T2, SNORF25 (Homo sapiens, UniProt Q8TDV5); assay: Stimulation of cAMP release by CHO cells stably expressing hSNORF25 receptors; format: cell-based; design: expressed in transfected cells; conditions: for % of PAF(C18) Response: maximum response as % of maximum response produced by PAF(C18) (taken as 100%); for EC50: mean ± S.E.M., at least 3 experiments, CHO cells stably expressing hSNORF25; for stimulation of cAMP: 10 μM, data not shown
T2 sequence (Q8TDV5 1-335): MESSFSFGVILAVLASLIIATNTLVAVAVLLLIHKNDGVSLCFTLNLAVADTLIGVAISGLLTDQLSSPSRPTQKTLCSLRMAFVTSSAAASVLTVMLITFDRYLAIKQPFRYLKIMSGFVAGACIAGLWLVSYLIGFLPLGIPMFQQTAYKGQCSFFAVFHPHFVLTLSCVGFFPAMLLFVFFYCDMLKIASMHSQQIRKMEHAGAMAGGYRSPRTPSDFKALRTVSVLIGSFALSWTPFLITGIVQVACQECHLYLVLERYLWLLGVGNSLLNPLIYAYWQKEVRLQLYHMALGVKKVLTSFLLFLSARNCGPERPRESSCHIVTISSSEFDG
Experimental: as §1
Heterologous DNA can be stably incorporated into host cells, causing the cell to perpetually express a foreign protein. Methods for the delivery of the DNA into the cell are similar to those described above for transient expression but require the co-transfection of an ancillary gene to confer drug resistance on the targeted host cell. The ensuing drug resistance can be exploited to select and maintain cells that have taken up the DNA. An assortment of resistance genes are available including but not restricted to neomycin, kanamycin, and hygromycin. For the purposes of studies concerning the receptor of this invention, stable expression of a heterologous receptor protein is typically carried out in, mammalian cells including but not necessarily restricted to, CHO, HEK293, LM(tk−), etc.
(§4) The receptor-mediated stimulation or inhibition of cyclic AMP (cAMP) formation may be assayed in cells expressing the receptors. According to one method, cells are plated in 96-well plates or other vessels and preincubated in a buffer such as HEPES buffered saline (NaCl (150 mM), CaCl2 (1mM), KCl (5 mM), glucose (10 mM)) supplemented with a phosphodiesterase inhibitor such as 5 mM theophylline, with or without protease inhibitor cocktail (For example, a typical inhibitor cocktail contains 2 μg/ml aprotinin, 0.5 mg/ml leupeptin, and 10 μg/ml phosphoramidon.) for 20 min at 37° C., in 5% CO2. Test compounds are added with or without […] and incubated for an additional 10 min at 37° C. The medium is then aspirated and the reaction stopped by the addition of 100 mM HCl or other methods. The plates are stored at 4° C. for 15 min, and the cAMP content in the stopping solution is measured by radioimmunoassay. Radioactivity may be quantified using a gamma counter equipped with data reduction software. Specific modifications may be performed to optimize the assay for the receptor or to alter the detection method of cAMP.
as §4, with “According” for “The receptor-mediated stimulation or inhibition of cyclic AMP (cAMP) formation may be assayed in cells expressing the receptors. According”, “a second” for “one”, “washed 2 times with” for “plated in 96-well plates or other vessels and preincubated in a buffer such as”, “saline, as described above, and incubated overnight. On the day of the experiment, cells are washed 2 times with HEPES” for “saline (NaCl (150 mM), CaCl2 (1mM), KCl (5 mM), glucose (10 mM))”
Several other closely related analogues of PAF namely Lyso-PAF with different carbon chains also stimulated cAMP.

SNORF25 [3] = target: T2, SNORF25; assay: CFTR Cl- currents in Xenopus oocytes co-injected with SNORF25 and CFTR mRNA; format: cell-based; design: from linearized plasmids or PCR products containing the complete coding region of the genes; expressed in transfected cells; host or cells: Xenopus laevis oocytes injected with SNORF25 mRNA (with or without CFTR mRNA); conditions: 10 μM; for CFTR current response: oocytes with SNORF25 and CFTR mRNA (FIG. 12A)
Experimental: Oocytes are harvested from Xenopus laevis and injected with mRNA transcripts as previously described (Quick and Lester, 1994; Smith et al., 1997). The test receptor of this invention and Gα subunit RNA transcripts are synthesized using the T7 polymerase (“Message Machine,” Ambion) from linearized plasmids or PCR products containing the complete coding region of the genes. Oocytes are injected with 10 ng synthetic receptor RNA and incubated for 3–8 days at 17 degrees. Three to eight hours prior to recording, oocytes are injected with 500 pg promiscuous Gα subunits mRNA in order to observe coupling to Ca^++ activated Cl^− currents.
Each of the compounds was tested at 10 μM. Oocytes expressing SNORF25 generated inward Cl^− currents, consistent with CFTR activation, in response to all four of the ligands.
The activity of SNORF25 was therefore tested in oocytes co-injected with mRNA encoding SNORF25 and mRNA encoding CFTR. In 17 out of 39 of these oocytes an inward Cl^− current (105±20 nA) was measured in response to the application of 10 μM all-trans-retinoic acid (See FIGS. 9A–9C and 10).

SNORF25 receptor [4] = assay: cAMP release in Cos-7 cells transiently transfected with SNORF25; format: cell-based; conditions: Cos-7 cells transiently transfected with SNORF25; preliminary, data not shown
Experimental: (§5) COS-7 cells are grown on 150 mm plates in DMEM with supplements (Dulbecco's Modified Eagle Medium with 10% bovine calf serum, 4 mM glutamine, 100 units/ml penicillin/100 μg/ml streptomycin) at 37° C., 5% CO2. Stock plates of COS-7 cells are trypsinized and split 1:6 every 3–4 days.
as §2, §3

[5] = system: mock-transfected Cos-7 cells; assay: cAMP in mock-transfected Cos-7 cells; format: cell-based; conditions: preliminary
Experimental: as §5, §2, §3

untransfected CHO cells = assay: cAMP release in native untransfected CHO cells; format: cell-based, Chinese hamster; conditions: FIG. 11A
Experimental: as §1
as §4, with “cAMP. […]” for “cAMP.”

[6] = system: isolated rat pancreatic islets; conditions: cited from earlier work
PAF receptors = PAF receptors (Homo sapiens, UniProt P25105); conditions: cloned or native PAF receptors; cited from earlier work
[7] = target: B2 adrenergic receptor (B2AR) (Homo sapiens, UniProt P07550); conditions: 1 μM; holding potential −70 mV (FIG. 9C)
B2 adrenergic receptor (B2AR), sequence (P07550 whole entry, species assumed): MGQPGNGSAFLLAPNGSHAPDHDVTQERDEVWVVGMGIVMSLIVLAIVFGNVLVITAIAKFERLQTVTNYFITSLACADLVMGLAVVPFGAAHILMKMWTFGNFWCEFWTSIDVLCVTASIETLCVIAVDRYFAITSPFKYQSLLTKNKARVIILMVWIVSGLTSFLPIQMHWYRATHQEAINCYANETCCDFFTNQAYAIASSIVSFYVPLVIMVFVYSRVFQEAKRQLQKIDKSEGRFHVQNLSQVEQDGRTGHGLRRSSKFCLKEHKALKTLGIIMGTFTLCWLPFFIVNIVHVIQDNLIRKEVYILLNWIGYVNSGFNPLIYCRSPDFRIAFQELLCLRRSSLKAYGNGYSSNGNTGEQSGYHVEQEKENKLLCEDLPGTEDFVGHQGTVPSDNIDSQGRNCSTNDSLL

PAF receptors, sequence (P25105 whole entry): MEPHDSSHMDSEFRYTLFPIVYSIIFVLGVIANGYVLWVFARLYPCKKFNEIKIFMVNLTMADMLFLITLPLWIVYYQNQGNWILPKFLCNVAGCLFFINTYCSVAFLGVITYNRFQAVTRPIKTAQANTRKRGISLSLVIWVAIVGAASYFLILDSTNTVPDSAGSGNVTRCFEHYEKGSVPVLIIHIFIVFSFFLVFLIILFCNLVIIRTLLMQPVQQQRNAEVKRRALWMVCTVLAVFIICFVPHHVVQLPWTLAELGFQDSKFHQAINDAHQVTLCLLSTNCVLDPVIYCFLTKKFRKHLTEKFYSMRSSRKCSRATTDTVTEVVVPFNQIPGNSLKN

Compound: CC1=C(/C=C/C(C)=C/C=C/C(C)=C/CO)C(C)(C)CCC1 [All-trans retinol, all-trans-retinol]
- increase in cAMP (SNORF25 receptor [1]): failed to produce an increase in cAMP

Compound: CCCCCCCCCCCCCCCCCCOC[C@@H](O)COP(=O)([O-])OCC[N+](C)(C)C [Lyso-PAF(C18)]
- % of PAF(C18) Response (SNORF25 [2]): 70%
- EC50 (SNORF25 [2]): 5.45 ± 2.63 µM
- CFTR current response (SNORF25 [3]): robust responses

Compound: CC1=C(/C=C/C(C)=C/C=C/C(C)=C/C=C/C=C(C)/C=C/C=C(C)/C=C/C2=C(C)CCCC2(C)C)C(C)(C)CCC1 [Atb carotene]
- stimulation of cAMP (SNORF25 [2]): no stimulation of cAMP

Compound: PAF(C16)
- % of PAF(C18) Response (SNORF25 [2]): 110%
- CFTR current response (SNORF25 [3]): robust responses

Compound: C=C1CC[C@H](O)C/C1=C/C=C1\CCC[C@]2(C)[C@@H]([C@H](C)CCCC(C)C)CC[C@@H]12 [vitamin D3]
- stimulation of cAMP (SNORF25 [2]): no stimulation of cAMP

Compound: 1-O-alkyl-2-acetyl-sn-glycero-3-phosphocholine [PAF]
- stimulation of cAMP levels (SNORF25 receptor [4]): 4–5 fold
- stimulation of cAMP levels in mock-transfected cells [5]: not mock-transfected cells
- cAMP response in untransfected CHO cells (untransfected CHO cells): No response
- potency in inducing insulin secretion relative to lyso-PAF [6]: nearly equipotent to lyso-PAF
- potency / activation at typical PAF receptors (PAF receptors): nanomolar potencies
- Emax of cAMP response (SNORF25 [2]; CHO cells expressing SNORF25 (FIG. 11A)): 200–400 % basal

Compound: CNC[C@H](O)c1ccc(O)c(O)c1 [epinephrine]
- CFTR current [7]: evokes a similar current

Compound: CC(C)=CCC/C(C)=C/C=C/C(C)=C/C=C/C(C)=C/C=C/C=C(C)/C=C/C=C(C)/C=C/C=C(\C)CCC=C(C)C [licopene]
- stimulation of cAMP (SNORF25 [2]): no stimulation of cAMP

Compound: CCCCC/C=C\C/C=C\C/C=C\C/C=C\CCCC(=O)O [AA]
- stimulation of cAMP (SNORF25 [2]): no stimulation of cAMP

Compound: CCCCCCCCCCCCCCCCOC[C@@H](O)COP(=O)([O-])OCC[N+](C)(C)C [Lyso-PAF(C16)]
- % of PAF(C18) Response (SNORF25 [2]): 120%
- EC50 (SNORF25 [2]): 3.48 ± 1.13 µM
- inward Cl- current amplitude (SNORF25 [3]; oocytes with SNORF25 and CFTR mRNA): 61.7±7.8 nA
- CFTR current response (SNORF25 [3]): robust responses

Compound: CCCCCCCCCCCCCCCCOC[C@@H](O)COP(=O)([O-])OCC[N+](C)(C)C [lyso-PAF]
- EC50 ([6]; basal (1.7 mM) and stimulatory (16.7 mM) glucose, read-out: EC50 of insulin release): ~100 µM
- potency / activation at typical PAF receptors (PAF receptors): not activated

Compound: vitamin E
- stimulation of cAMP (SNORF25 [2]): no stimulation of cAMP

Source: US7416848B2, “DNA encoding SNORF25 receptor” (H. Lundbeck A/S, priority 1999, dated 2008)
